Data published in ChEMBL document CHEMBL1138448, “Synthesis, biological evaluation, and molecular docking of Ugi products containing a zinc-chelating moiety as novel inhibitors of histone deacetylases” (J Med Chem, 2009).
pIC50: −log10 of the molar value. The source made the active and inactive calls. The calls are words filed in the database; no cut-off is given here.

Legend:
SH-SY5Y [1] = assay: Cytotoxicity against human SH-SY5Y cells assessed as cell viability after 48 hrs by MTT assay; assay type: functional, cell-based
SH-SY5Y [2] = assay: Cytotoxicity against human SH-SY5Y cells assessed as cell viability at 10 uM after 48 hrs by MTT assay relative to control; assay type: functional; details: for viability at 10 µM: Homo sapiens, SH-SY5Y, 48 h, read-out: Activity
[3] = biological target: Histone deacetylase (Homo sapiens) (UniProt Q13547+O15379+Q9UBN7+Q92769+Q9UQL6+Q8WUI4+Q9BY41+Q96DB2+P56524+Q9UKV0+Q969S8); details: SH-SY5Y, at 10 µM
Description: Inhibition of HDAC in human SHSY5Y cells at 10 uM by fluorimetric cellular activity assay

Histone deacetylase = assay: Inhibition of HDAC in human SHSY5Y cells by fluorimetric cellular activity assay; assay type: cell-based; details: sh-sy5y
SH-SY5Y [4] = assay: Cell cycle arrest in human SH-SY5Y cells assessed as accumulation at G2/M phase at 3 uM after 16 hrs by flow cytometry; assay type: functional

| SMILES | pIC50 (SH-SY5Y [1]) | viability at 10 µM (SH-SY5Y [2]) [%] | other results |
| --- | --- | --- | --- |
| CCCCCCC(C(=O)NC1CCCCC1)N(CCc1ccccc1)C(=O)CCCCCC(=O)NO (stereo not given) | 5.54 | 35 |  |
| O=C(CCCCCCC(=O)N(Cc1ccccc1)C(Cc1ccccc1)C(=O)NCCc1ccccc1)NO (stereo not given) |  | 53.1 |  |
| CN(C(=O)CCCCCCC(=O)NO)C(Cc1ccccc1)C(=O)NCCc1ccccc1 (stereo not given) |  | 94.4 |  |
| Nc1ccccc1NC(=O)CCCCCCC(=O)N(Cc1ccccc1)C(Cc1ccc(-c2ccccc2)cc1)C(=O)NCCc1ccccc1 (stereo not given) |  | 74 |  |
| O=C(CCCCCC(=O)N(CCc1ccccc1)C(Cc1ccccc1)C(=O)NCCc1ccccc1)NO (stereo not given) | 5.54 | 30.2 |  |
| O=C(CCCCCC(=O)N(CCc1ccccc1)C(Cc1ccccc1)C(=O)NCc1ccccc1)NO (stereo not given) | 5.12 | 34.9 |  |
| O=C(CCCCCCC(=O)N(Cc1ccccc1)C(Cc1ccc(-c2ccccc2)cc1)C(=O)NCCc1ccccc1)NO (stereo not given) | 5.38 | 22.2 | inhibition [3]: Active; IC50 (Histone deacetylase): 4.4 µM; Activity (SH-SY5Y [4]): 11.3% |
| O=C(CCCCCCC(=O)Nc1ccccc1)NO [VORINOSTAT] |  |  | Activity (SH-SY5Y [4]): 34%; Activity (SH-SY5Y [2]): 33.8% |
| CCCCCCCC(C(=O)NCCc1ccccc1)N(Cc1ccccc1)C(=O)CCCCCCC(=O)NO (stereo not given) |  | 53 |  |
| O=C(CCCCCC(=O)N(Cc1ccccc1)C(Cc1ccccc1)C(=O)NCCc1ccccc1)NO (stereo not given) | 5.12 | 30.8 |  |
| O=C(CCCCCC(=O)N(Cc1ccccc1)C(Cc1ccccc1)C(=O)NC1CCCCC1)NO (stereo not given) | 5.60 | 27.4 | inhibition [3]: Active; IC50 (Histone deacetylase): 1.2 µM; Activity (SH-SY5Y [4]): 34.3% |
| Nc1ccccc1NC(=O)CCCCCC(=O)N(Cc1ccccc1)C(Cc1ccccc1)C(=O)NC1CCCCC1 (stereo not given) |  | 91.6 |  |
